Laboratory results: US20260109707A1, “HETEROBIFUNCTIONAL COMPOUNDS AND METHODS OF TREATING DISEASE” (Halda Therapeutics OpCo. Inc., priority 2022, published 2026)
Where two headings read alike, the source gives them in different places.

Tests used:
[1] = test system: T-Rex 293 cell line SC3 cells having increased expression of androgen receptor protein due to exposure to doxycycline; experiment: Cellular growth inhibition assay, T-Rex 293 SC3 cells with doxycycline (CellTiter-Glo, 72 hours); assay type: cell-based; conditions: T-Rex 293 SC3 cells with increased androgen receptor expression due to doxycycline (10 ng/mL)
Outline: (§1)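 Growth inhibition is measured in an inducible AR-expressing T-Rex 293 clone, SC3, cultured with or without 10 ng/mL doxycycline in hormone-depleted medium. Test compounds are applied for 72 hours. GI50 values derive from CellTiter-Glo 2.0 signal fitted by four-parameter regression.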

[2] = test system: T-Rex 293 cell line SC3 cells lacking increased expression of androgen receptor protein; experiment: Cellular growth inhibition assay, T-Rex 293 SC3 cells without doxycycline (CellTiter-Glo, 72 hours); assay type: cell-based; conditions: T-Rex 293 cell line SC3 cells not exposed to doxycycline (lacking increased androgen receptor expression)
Outline: as §1

VCaP cells = experiment: Cellular growth inhibition assay for VCaP cells (CellTiter-Glo, 72 hours); assay type: cell-based, human
Outline: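 Luminescent viability signal after 72 h of compound exposure gave GI50 values by four-parameter nonlinear regression. Compounds were added in 0.5% DMSO to cells plated 24 h earlier at 5000/well in DMEM containing 10% FBS.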

T47D cells = experiment: Cellular growth inhibition assay for T47D cells (CellTiter-Glo, 72 hours); assay type: cell-based, human; conditions: 72 hours treatment
Outline: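 Luminescence from CellTiter-Glo 2.0 after 72 h of compound exposure gives the viability signal. Cells grew in insulin-supplemented (0.2 units/mL) DMEM with 10% FBS and were treated one day after seeding at 0.5% DMSO. GI50 values come from four-parameter nonlinear regression.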

Row | Structure (SMILES) | GI50 (VCaP cells; Homo sapiens, VCaP, 72 h) | GI50 (T47D cells; Homo sapiens, T47D, 72 h) | GI50 (VCaP cells) | GI50 (T47D cells) | GI50 ([1]; 72 h) | GI50 ([2]; 72 h) | GI50 [1] | GI50 [2]
1 | Cc1sc2c(c1C)C(c1ccc(C[C@H]3CC[C@@]4(CCCN(c5ccc(C(=O)N[C@H]6CC[C@H](Oc7ccc(C#N)c(Cl)c7)CC6)nn5)C4)C3)cc1)=N[C@@H](Cc1ncco1)c1nnc(C)n1-2 [I-123] | 1.5 to 3 µM | 1.5 to 3 µM |  |  | 1.5 to 3 µM | > 3 µM |  | 
2 | Cc1sc2c(c1C)C(c1ccc(C[C@H]3CC[C@]4(CCCN(c5ccc(C(=O)N[C@H]6CC[C@H](Oc7ccc(C#N)c(Cl)c7)CC6)nn5)C4)C3)cc1)=N[C@@H](Cc1ncco1)c1nnc(C)n1-2 [I-124] | < 0.5 µM | < 0.5 µM |  |  | < 0.5 µM | < 0.5 µM |  | 
3 | Cc1sc2c(c1C)C(c1ccc(C[C@@H]3CC[C@@]4(CCCN(c5ccc(C(=O)N[C@H]6CC[C@H](Oc7ccc(C#N)c(Cl)c7)CC6)nn5)C4)C3)cc1)=N[C@@H](Cc1ncco1)c1nnc(C)n1-2 [I-125] | < 0.5 µM | < 0.5 µM |  |  | < 0.5 µM | < 0.5 µM |  | 
4 | Cc1sc2c(c1C)C(c1ccc(CCCN3CCCN(c4ccc(C(=O)N[C@H]5CC[C@H](Oc6ccc(C#N)c(Cl)c6)CC5)nn4)CC3)cc1)=N[C@@H](Cc1ncco1)c1nnc(C)n1-2 [I-126] | < 0.5 µM | < 0.5 µM |  |  | < 0.5 µM | < 0.5 µM |  | 
5 | Cc1sc2c(c1C)C(c1ccc(C[C@H]3C[C@H]([C@H]4CCCN(c5ccc(C(=O)N[C@H]6CC[C@H](Oc7ccc(C#N)c(Cl)c7)CC6)nn5)C4)C3)cc1)=N[C@@H](Cc1ncco1)c1nnc(C)n1-2 [I-131] | < 0.5 µM | 0.5 to 1.5 µM |  |  | < 0.5 µM | < 0.5 µM |  | 
6 | Cc1sc2c(c1C)C(c1ccc(N3CC4(CCN(c5ccc(C(=O)NC6CCC(Oc7ccc(C#N)c(Cl)c7)CC6)nn5)CC4)C3)cc1)=N[C@@H](Cc1ncco1)c1nnc(C)n1-2 (stereo partly drawn) [I-132, N-[4-(3-chloro-4-cyano-phenoxy)cyclohexyl]-6-[2-[4-[(9S)-4,5,13-trimethyl-9-(oxazol-2-ylmethyl)-3-thia-1,8,11,12-tetrazatricyclo[8.3.0.02,6]trideca-2(6),4,7,10,12-pentaen-7-yl]phenyl]-2,7-diazaspiro[3.5]nonan-7-yl]pyridazine-3-carboxamide] | < 0.5 µM | < 0.5 µM |  |  | < 0.5 µM | < 0.5 µM |  | 
7 | Cc1sc2c(c1C)C(c1ccc(OC3CC4(CCN(c5ccc(C(=O)N[C@H]6CC[C@H](Oc7ccc(C#N)c(Cl)c7)CC6)nn5)CC4)C3)cc1)=N/C(=C/c1ncco1)c1nnc(C)n1-2 [I-135, N-[4-(3-chloro-4-cyano-phenoxy)cyclohexyl]-6-[2-[4-[(9E)-4,5,13-trimethyl-9-(oxazol-2-ylmethylene)-3-thia-1,8,11,12-tetrazatricyclo[8.3.0.02,6]trideca-2(6),4,7,10,12-pentaen-7-yl]phenoxy]-7-azaspiro[3.5]nonan-7-yl]pyridazine-3-carboxamide] | < 0.5 µM | > 3 µM |  |  | < 0.5 µM | > 3 µM |  | 
8 | Cc1sc2c(c1C)C(c1ccc(C#CCC3CCN(c4ccc(C(=O)N[C@H]5CC[C@H](Oc6ccc(C#N)c(Cl)c6)CC5)nn4)CC3)cc1)=N[C@@H](Cc1ncco1)c1nnc(C)n1-2 [I-136, N-[4-(3-chloro-4-cyano-phenoxy)cyclohexyl]-6-[4-[3-[4-[(9S)-4,5,13-trimethyl-9-(oxazol-2-ylmethyl)-3-thia-1,8,11,12-tetrazatricyclo[8.3.0.02,6]trideca-2(6),4,7,10,12-pentaen-7-yl]phenyl]prop-2-ynyl]-1-piperidyl]pyridazine-3-carboxamide] | < 0.5 µM | < 0.5 µM |  |  | < 0.5 µM | < 0.5 µM |  | 
9 | Cc1sc2c(c1C)C(c1ccc(C#CCC3CCN(c4ccc(C(=O)N[C@H]5CC[C@H](Oc6ccc(C#N)c(Cl)c6)CC5)nn4)CC3)cc1)=N[C@H](Cc1ncco1)c1nnc(C)n1-2 [I-137] | 0.5 to 1.5 µM | 1.5 to 3 µM |  |  | < 0.5 µM | > 3 µM |  | 
10 | Cc1sc2c(c1C)C(c1ccc(C#CC3CC4(C3)CN(c3ccc(C(=O)N[C@H]5CC[C@H](Oc6ccc(C#N)c(Cl)c6)CC5)nn3)C4)cc1)=N[C@@H](Cc1ncco1)c1nnc(C)n1-2 [I-138] | < 0.5 µM | < 0.5 µM |  |  | < 0.5 µM | < 0.5 µM |  | 
11 | Cc1sc2c(c1C)C(c1ccc(C#CC3CC4(CCN(c5ccc(C(=O)N[C@H]6CC[C@H](Oc7ccc(C#N)c(Cl)c7)CC6)nn5)CC4)C3)cc1)=N[C@@H](Cc1ncco1)c1nnc(C)n1-2 [I-139] | < 0.5 µM | < 0.5 µM |  |  | < 0.5 µM | < 0.5 µM |  | 
12 | Cc1sc2c(c1C)C(c1ccc(C#CCN3[C@H](C)CN(c4ccc(C(=O)N[C@H]5CC[C@H](Oc6ccc(C#N)c(Cl)c6)CC5)nn4)C[C@@H]3C)cc1)=N[C@@H](Cc1ncco1)c1nnc(C)n1-2 [I-140] | < 0.5 µM | < 0.5 µM |  |  | < 0.5 µM | < 0.5 µM |  | 

The next lines start with results.

Row | GI50 (VCaP cells; Homo sapiens, VCaP, 72 h) | GI50 (T47D cells; Homo sapiens, T47D, 72 h) | GI50 (VCaP cells) | GI50 (T47D cells) | Structure (SMILES) | GI50 ([1]; 72 h) | GI50 ([2]; 72 h) | GI50 [1] | GI50 [2]
13 | < 0.5 µM | < 0.5 µM |  |  | Cc1sc2c(c1C)C(c1ccc(C=C3CC4(CCCN(c5ccc(C(=O)NC6CCC(Oc7ccc(C#N)c(Cl)c7)CC6)nn5)C4)C3)cc1)=N[C@@H](Cc1ncco1)c1nnc(C)n1-2 (stereo partly drawn) [I-142, N-[4-(3-chloro-4-cyano-phenoxy)cyclohexyl]-6-[2-[[4-[(9S)-4,5,13-trimethyl-9-(oxazol-2-ylmethyl)-3-thia-1,8,11,12-tetrazatricyclo[8.3.0.02,6]trideca-2(6),4,7,10,12-pentaen-7-yl]phenyl]methylene]-6-azaspiro[3.5]nonan-6-yl]pyridazine-3-carboxamide] | < 0.5 µM | < 0.5 µM |  | 
14 | < 0.5 µM | < 0.5 µM |  |  | Cc1sc2c(c1C)C(c1ccc(C3CC3C3CC4(CCN(c5ccc(C(=O)N[C@H]6CC[C@H](Oc7ccc(C#N)c(Cl)c7)CC6)nn5)CC4)C3)cc1)=N[C@@H](Cc1ncco1)c1nnc(C)n1-2 (stereo partly shown) [I-200] | < 0.5 µM | < 0.5 µM |  | 
15 | < 0.5 µM | < 0.5 µM |  |  | Cc1sc2c(c1C)C(c1ccc([C@@H]3C[C@H]3C3CC4(CCN(c5ccc(C(=O)N[C@H]6CC[C@H](Oc7ccc(C#N)c(Cl)c7)CC6)nn5)CC4)C3)cc1)=N[C@@H](Cc1ncco1)c1nnc(C)n1-2 [I-201] | < 0.5 µM | > 3 µM |  | 
16 | < 0.5 µM | < 0.5 µM |  |  | Cc1sc2c(c1C)C(c1ccc([C@H]3C[C@@H]3CC3CCCN(c4ccc(C(=O)N[C@H]5CC[C@H](Oc6ccc(C#N)c(Cl)c6)CC5)nn4)C3)cc1)=N[C@@H](Cc1ncco1)c1nnc(C)n1-2 (stereo partly shown) [I-202] | < 0.5 µM | < 0.5 µM |  | 
17 |  |  | > 3 µM | > 3 µM | Cc1sc2c(c1C)C(c1ccc(OC[C@H]3C[C@]4(CCCN(c5ccc(C(=O)N[C@H]6CC[C@H](Oc7ccc(C#N)c(Cl)c7)CC6)nn5)C4)C3)cc1)=N[C@@H](Cc1ncco1)c1nnc(C)n1-2 [I-206] |  |  | 0.5 to 1.5 µM | > 3 µM
18 | < 0.5 µM | < 0.5 µM |  |  | Cc1sc2c(c1C)C(c1ccc(CC[C@H]3C[C@@]4(CCCN(c5ccc(C(=O)N[C@H]6CC[C@H](Oc7ccc(C#N)c(Cl)c7)CC6)nn5)C4)C3)nc1)=N[C@@H](Cc1ncco1)c1nnc(C)n1-2 [I-207] | < 0.5 µM | < 0.5 µM |  | 
19 | < 0.5 µM | < 0.5 µM |  |  | Cc1sc2c(c1C)C(c1ccc(C3CN(C4CCN(c5ccc(C(=O)N[C@H]6CC[C@H](Oc7ccc(C#N)c(Cl)c7)CC6)nn5)C4)C3)cc1)=N[C@@H](Cc1ncco1)c1nnc(C)n1-2 (stereo partly shown) [I-209] | < 0.5 µM | < 0.5 µM |  | 
20 | > 3 µM | 0.5 to 1.5 µM |  |  | Cc1sc2c(c1C)C(c1ccc(C[C@H]3C[C@@]4(CN(c5ccc(C(=O)N[C@H]6CC[C@H](Oc7ccc(C#N)c(Cl)c7)CC6)nn5)CCO4)C3)cc1)=N[C@@H](Cc1ncco1)c1nnc(C)n1-2 [I-210] | > 3 µM | > 3 µM |  | 
21 | < 0.5 µM | < 0.5 µM |  |  | Cc1sc2c(c1C)C(c1ccc(C[C@H]3C[C@]4(CN(c5ccc(C(=O)N[C@H]6CC[C@H](Oc7ccc(C#N)c(Cl)c7)CC6)nn5)CCO4)C3)cc1)=N[C@@H](Cc1ncco1)c1nnc(C)n1-2 [I-211] | < 0.5 µM | < 0.5 µM |  | 
22 | < 0.5 µM | < 0.5 µM |  |  | Cc1sc2c(c1C)C(c1ccc(C3CN(C4CCN(c5ccc(C(=O)N[C@H]6CC[C@H](Oc7ccc(C#N)c(Cl)c7)CC6)nn5)CC4)C3)cc1)=N[C@@H](Cc1ncco1)c1nnc(C)n1-2 [I-212] | < 0.5 µM | < 0.5 µM |  | 
23 | > 3 µM | > 3 µM |  |  | Cc1sc2c(c1C)C(c1ccc(CC[C@H]3CC[C@@]4(CCCN(c5ccc(C(=O)N[C@H]6CC[C@H](Oc7ccc(C#N)c(Cl)c7)CC6)nn5)C4)C3)cc1)=N[C@@H](Cc1ncco1)c1nnc(C)n1-2 [I-213] | > 3 µM | > 3 µM |  | 
24 | > 3 µM | > 3 µM |  |  | Cc1sc2c(c1C)C(c1ccc(CC[C@@H]3CC[C@@]4(CCCN(c5ccc(C(=O)N[C@H]6CC[C@H](Oc7ccc(C#N)c(Cl)c7)CC6)nn5)C4)C3)cc1)=N[C@@H](Cc1ncco1)c1nnc(C)n1-2 [I-214] | > 3 µM | > 3 µM |  | 
25 | < 0.5 µM | < 0.5 µM |  |  | Cc1sc2c(c1C)C(c1ccc(CC[C@H]3CC[C@@]4(CCCN(c5ccc(C(=O)N[C@H]6CC[C@H](Oc7ccc(C#N)c(Cl)c7)CC6)nn5)C4)C3)cc1)=N[C@H](Cc1ncco1)c1nnc(C)n1-2 [I-215] | < 0.5 µM | < 0.5 µM |  | 
